Assay results from US7432264B2, “Antimicrobial biaryl compounds” (Isis Pharmaceuticals, Inc., priority 2000, dated 2008).
≈ marks a conversion by molar mass, not a printed value.

Assays:
[1] = target: A1061 23S rRNA MS screening construct; assay: Mass-spec binding assay (SAR by MS, ESI-FTICR-MS); set-up: species or system E. coli
Experimental: Binding affinity of test compounds to a 58 nucleotide fragment of E. coli 23S ribosomal RNA (23S rRNA) was determined using electrospray ionization Fourier transform ion cyclotron resonance mass spectrometry (ESI-FTICR-MS). The structure of the 23S rRNA fragment and its preparation is described by Conn et al (Science, 1999, 284(5417):1171) and Hinck et al (J. Mol. Biol., 1997, 274(1):101) both incorporated herein by reference. The mass spec assay determined the exact chemical composition of ligands that bound to the target rRNA and determined relative or absolute dissociation (KD) of ligands for the target. In the first step of the assay, a mixture of 23S rRNA target and test compound were moved from solution into the gas phase by electrospray ionization. The FT-ICR mass spectrometer served as a parallel set of “scales”, simultaneously measuring the exact molecular masses of the small molecules that bound to the RNA with great accuracy. The mass measurement error for an RNA-ligand complex weighing 10 kDa equals the mass of an electron. At this level of mass accuracy, each compound in the mixture was “labeled” by its molecular formula and exact molecular mass. […]

[2] = tested on: E. coli S30 bacterial extract (protein synthesis); type: biochemical
Experimental: Coupled Bacterial Transcription/Translation Assay. The DNA template, pBestLuc™ (Promega), is a plasmid containing a reporter gene for firefly luciferase fused to a strong tac promoter and ribosome binding site. Messenger RNA from 1 μg pBestLuc was transcribed and translated in E. coli S30 bacterial extract in the presence or absence of test compound. Compounds were tested in a black 96 well microtiter plate with an assay volume of 35 μL. Each test well contained: 5 μL test compound, 13 μL S30 premix (Promega), 4 μL 10× complete amino acid mix (1 mM each), 5 μL E. coli S30 extract and 8 μL of […] pBestLuc™. The transcription/translation reaction was incubated for 35 minutes at 37° C. followed by detection of functional luciferase with the addition of 30 μL LucLite™ (Packard). Light output was quantitated on a Packard TopCount.

[3] = tested on: eukaryotic protein synthesis; assay: Eukaryotic protein synthesis, cell-free assay; type: biochemical; conditions: at 200:M
Text: The biphenyl substitution improves in vitro antibacterial […] 4-fold compared to the phenyl substitution (34 versus 26). […] Biaryl 34 was selected to be evaluated against some additional bacterial strains. […] See Kung, P.-P.; Casper, M. D.; Cook, K. L.; Wilson-Lingardo, L.; Risen, L. M.; Vickers, T. A.; Ranken, R.; Blyn, L. B.; Wyatt, J. R.; Cook, P. D.; Ecker, D. J. J. Med. Chem. 1999, 42, 4705-4713.

[4] = tested on: methicillin resistant S. aureus ATCC43300; assay: MIC, methicillin-resistant S. aureus; type: cell-based, Staphylococcus aureus
Experimental: (§1) Determination of Minimum Inhibitory Concentrations (MICs). The assays were carried out in […] volume in duplicate in 96-well clear flat-bottom plates. The bacterial suspension from an overnight culture growth in appropriate medium was added to a solution of test compound in 4% DMSO in water. Final bacterial inoculum was approximately 10^5-10^6 CFU/well. The percent growth of the bacteria in test wells relative to that observed for a well containing no compound was determined by measuring absorbance at 595 nm (A595) after 24 h. […] Both ampicillin and tetracycline is used as antibiotic-positive controls in each screening assay for S. pyogenes, E. coli imp-, E. coli, S. aureus, E. faecalis, K pneumoniae and P. vulgaris. Ciprofloxacin is used as an antibiotic positive control in each screening assay for P. aeruginosa.

S. pyogenes ATCC 49399 = assay: MIC, Streptococcus pyogenes; type: cell-based
Experimental: (§2) Bacterial Strains. The Streptococcus pyogenes strains, Klebsiella pneumoniae, Escherichia coli, Staphylococcus aureus, Enterococcus faecalis used in the antibacterial activity studies ATCC 14289, 49399, 13883, 25922, 13709, 29212, respectively, are obtained from the American Type Culture Collection, Rockville, Md. The strain E. coli imp— is a mutant strain of wild type E. coli with increased outer membrane permeability and was grown in LB broth at 37 °C. S. pyogenes strain is grown in Todd-Hewitt broth. S. aureus is grown in trypticase soy broth, E. faecalis in Todd-Hewitt broth, wild type E. coli and K. pneumoniae, in nutrient broth.
as §1, with “Ciprofloxacin is used as an antibiotic positive control in each screening assay for P. aeruginosa.” left out

K pneumoniae ATCC 13383 = assay: MIC, Klebsiella pneumoniae; type: cell-based
Experimental: as §2
as §1, with “Ciprofloxacin is used as an antibiotic positive control in each screening assay for P. aeruginosa.” left out

E. faecalis ATCC 29212 = assay: MIC, Enterococcus faecalis; type: cell-based
Experimental: as §2
as §1, with “Ciprofloxacin is used as an antibiotic positive control in each screening assay for P. aeruginosa.” left out

P. vulgaris ATCC 8427 = assay: MIC, Proteus vulgaris; type: cell-based
Experimental: as §1

S. aureus ATCC 13709 = assay: Minimum inhibitory concentration (MIC), S. aureus; type: cell-based, Staphylococcus aureus
Experimental: as §2, §1

E. coli ATCC 25922 = assay: Minimum inhibitory concentration (MIC), E. coli; type: cell-based, Escherichia coli
Experimental: as §2, §1

SMILES: NCC[C@@H](NC(=O)c1ccco1)C(=O)N1CCNCC1
- Kd [1]: 50 µM

SMILES: CN(C)CCCOc1ccc(C(NC(=O)c2ccc3[nH]c(=O)c(=O)[nH]c3c2)C(=O)N2CCNCC2)cc1 (stereo not shown) [Compound 22]
- activity in bacterial protein synthesis assay at 200:M ([2]; at 200:M): inactive

SMILES: CN(C)CCCOc1ccc(C(NC(=O)c2ccc(-c3cccc(NC(=O)c4ccc(-c5ccccc5)cc4)c3)o2)C(=O)N2CCNCC2)cc1 (stereo not shown) [Compound 34]
- inhibition of eukaryotic protein synthesis [3]: not to inhibit
- MIC methicillin-resistant S. aureus strain [4]: 13-25 :M
- MIC Streptococcus pyogenes (S. pyogenes ATCC 49399): 3-6 :M
- MIC Klebsiella pneumoniae (K pneumoniae ATCC 13383): 13-25 :M
- fold improvement compared to the phenyl substitution (26) ([2]; 34 versus 26): 4 fold
- MIC Enterococcus faecalis (E. faecalis ATCC 29212): 3-6 :M
- MIC Proteus vulgaris (P. vulgaris ATCC 8427): 50-100 :M
- MIC S. aureus (S. aureus ATCC 13709; S. aureus ATCC 13709): 3-6 :M
- MIC (S. aureus ATCC 13709; Staphylococcus aureus, ATCC13709, 24 h, read-out: MIC (S. aureus)): 6 to 13 mM (≈ 4110 to 8920 µg/mL)
- MIC E. coli (E. coli ATCC 25922; E. coli ATCC 25922): 6-13 :M
- MIC (E. coli ATCC 25922; Escherichia coli, ATCC25922, 24 h, read-out: MIC (E. coli)): 6 to 13 mM (≈ 4110 to 8920 µg/mL)
